Data as given in ChEMBL document CHEMBL1201862, “PubChem BioAssay data set” (2004).
The source made the active and inactive calls.

Experiments:
[1] = molecular target: T1, Rac GTPase-activating protein 1 (Homo sapiens, UniProt Q9H0H5); experiment: MgcRacGAP GTPase-activating activity inhibitors, confirmation, biochemical, ADP Hunter fluorescence, primary and confirmatory (AID 624330); assay type: functional
T1 sequence (Q9H0H5 whole entry): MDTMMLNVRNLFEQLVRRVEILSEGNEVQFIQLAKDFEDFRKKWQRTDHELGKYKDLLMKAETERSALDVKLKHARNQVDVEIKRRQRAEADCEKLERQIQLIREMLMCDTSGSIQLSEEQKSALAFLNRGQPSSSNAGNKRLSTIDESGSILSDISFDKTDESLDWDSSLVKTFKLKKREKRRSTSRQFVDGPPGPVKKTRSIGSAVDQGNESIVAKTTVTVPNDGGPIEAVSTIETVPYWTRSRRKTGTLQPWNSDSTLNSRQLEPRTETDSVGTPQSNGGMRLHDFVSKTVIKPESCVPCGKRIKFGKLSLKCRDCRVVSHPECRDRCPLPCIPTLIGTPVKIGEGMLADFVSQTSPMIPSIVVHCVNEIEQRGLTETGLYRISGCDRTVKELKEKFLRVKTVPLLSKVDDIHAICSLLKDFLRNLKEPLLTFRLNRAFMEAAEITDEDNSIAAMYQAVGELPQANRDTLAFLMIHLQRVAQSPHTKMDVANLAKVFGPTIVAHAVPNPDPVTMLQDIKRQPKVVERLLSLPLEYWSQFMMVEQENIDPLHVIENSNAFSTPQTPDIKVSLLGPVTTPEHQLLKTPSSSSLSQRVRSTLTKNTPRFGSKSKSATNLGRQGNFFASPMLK

[2] = inhibitors of Vif binding to APOBEC3G peptide, primary screen, biochemical, TR-FRET, GST-Vif 1-94, biotin-A3G peptide, dose response retest (AID 1117319); assay type: functional;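 note: TR-FRET signal of purified GST-Vif binding a biotinylated A3G peptide; inhibitors lower the FRET signal by blocking Vif and A3G binding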
[3] = HeLa cell cytotoxicity, dose response, cytotoxicity control for MgcRacGAP inhibitor project (AID 624300); assay type: functional
[4] = THP-1 cell cytotoxicity, dose response, cytotoxicity control for Vif-APOBEC3G degradation inhibitor project, THP-1 cells (AID 1117359); assay type: functional; details: Human immunodeficiency virus 1, THP-1
Vero = Vero cell cytotoxicity, cytotoxicity control for flavivirus capping enzyme inhibitors (AID 588742); assay type: functional; details: Chlorocebus sabaeus
Cytochrome P450 2C9 = Cytochrome P450 2C9 (Homo sapiens, UniProt P11712)
Cytochrome P450 1A2 = molecular target: T2, Cytochrome P450 1A2 (Homo sapiens, UniProt P05177);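 note: PubChem cytochrome P450 panel assay, CYP1A2 panel member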
T2 sequence (P05177 whole entry): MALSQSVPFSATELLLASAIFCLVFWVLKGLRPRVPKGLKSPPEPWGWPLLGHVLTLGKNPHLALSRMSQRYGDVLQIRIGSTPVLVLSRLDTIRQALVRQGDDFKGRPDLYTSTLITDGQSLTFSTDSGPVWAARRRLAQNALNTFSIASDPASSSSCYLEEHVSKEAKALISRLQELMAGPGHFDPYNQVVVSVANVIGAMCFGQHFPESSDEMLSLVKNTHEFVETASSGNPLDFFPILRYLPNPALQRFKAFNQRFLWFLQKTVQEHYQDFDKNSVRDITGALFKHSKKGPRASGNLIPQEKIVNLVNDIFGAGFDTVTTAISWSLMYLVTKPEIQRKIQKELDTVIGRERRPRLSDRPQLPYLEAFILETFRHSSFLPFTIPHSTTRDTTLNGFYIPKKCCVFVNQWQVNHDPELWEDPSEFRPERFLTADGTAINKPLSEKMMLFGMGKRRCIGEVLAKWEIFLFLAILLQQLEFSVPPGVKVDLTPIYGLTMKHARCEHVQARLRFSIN

Cytochrome P450 3A4 = Cytochrome P450 3A4 (Homo sapiens, UniProt P08684);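 note: CYP3A4 tested as one member of a cytochrome P450 panel screen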
[5] = C. albicans growth with fluconazole, confirmation, fluorescence, retest (AID 2467); assay type: functional, cell-based
Albumin = Albumin (Bos taurus, UniProt P02769); experiment: Counterscreen for inhibitors of T-cell receptor (TCR)-CD3 interaction: Fluorescence-based biochemical high throughput dose response assay to identify inhibitors of T-cell receptor (TCR)-CD3 interaction using a TAMRA-labeled BSA probe.; assay type: functional
[6] = NIH-3T3 fibroblast cytotoxicity, dose response, cytotoxicity control, cell-based, fluorescence, Alamar Blue, secondary assay (AID 2327); assay type: functional;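 note: NIH-3T3 mouse fibroblasts cultured with fluconazole at 8 µg/mL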
[7] = HepG2 cell cytotoxicity, dose response, cytotoxicity control, plate reader, cherry-pick, antagonist series (AID 743416); assay type: functional, cell-based
[8] = molecular target: T3, Sentrin-specific protease 6 (Homo sapiens, UniProt Q9GZR1); assay type: functional;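 note: Luminescence-based dose-response confirmatory assay of SENP6 inhibition, following up an ultra-high-throughput screen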
T3 sequence (Q9GZR1 whole entry): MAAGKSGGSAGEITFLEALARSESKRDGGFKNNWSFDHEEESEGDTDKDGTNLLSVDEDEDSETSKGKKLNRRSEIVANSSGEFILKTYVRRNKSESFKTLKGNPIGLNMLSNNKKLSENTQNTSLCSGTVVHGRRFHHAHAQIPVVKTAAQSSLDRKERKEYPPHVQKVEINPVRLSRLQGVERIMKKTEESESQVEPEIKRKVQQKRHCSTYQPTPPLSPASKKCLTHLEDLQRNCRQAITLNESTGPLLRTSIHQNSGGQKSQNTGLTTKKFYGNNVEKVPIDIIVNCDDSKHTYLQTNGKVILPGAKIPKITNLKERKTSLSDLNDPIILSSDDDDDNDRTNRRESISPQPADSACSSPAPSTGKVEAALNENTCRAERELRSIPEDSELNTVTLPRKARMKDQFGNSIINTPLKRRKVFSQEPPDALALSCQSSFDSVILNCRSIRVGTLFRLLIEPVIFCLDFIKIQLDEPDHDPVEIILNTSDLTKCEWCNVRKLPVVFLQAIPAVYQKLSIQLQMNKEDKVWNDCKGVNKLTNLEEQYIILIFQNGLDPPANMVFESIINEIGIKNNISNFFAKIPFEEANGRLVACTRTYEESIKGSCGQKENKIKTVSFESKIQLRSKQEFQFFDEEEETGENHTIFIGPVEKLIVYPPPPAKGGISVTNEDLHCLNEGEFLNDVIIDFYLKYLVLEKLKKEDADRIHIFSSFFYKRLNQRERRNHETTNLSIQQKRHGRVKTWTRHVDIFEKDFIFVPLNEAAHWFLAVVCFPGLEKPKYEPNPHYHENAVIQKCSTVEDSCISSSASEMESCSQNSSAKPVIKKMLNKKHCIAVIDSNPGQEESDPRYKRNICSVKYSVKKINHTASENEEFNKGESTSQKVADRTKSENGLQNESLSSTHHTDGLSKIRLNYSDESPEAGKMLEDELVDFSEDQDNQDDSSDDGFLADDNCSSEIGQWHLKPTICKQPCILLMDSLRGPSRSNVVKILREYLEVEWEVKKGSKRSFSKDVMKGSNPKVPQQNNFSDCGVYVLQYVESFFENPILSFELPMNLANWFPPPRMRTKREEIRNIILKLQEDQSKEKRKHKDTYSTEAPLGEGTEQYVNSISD

[9] = A549 cell cytotoxicity, dose response, cytotoxicity control, plate reader, cherry-pick, antagonist series (AID 743412); assay type: functional, cell-based
[10] = HEK293 cell cytotoxicity, dose response, cytotoxicity control, plate reader, cherry-picked samples (AID 743446); assay type: functional, cell-based
Caspase-3 = molecular target: T4, Caspase-3 (Homo sapiens, UniProt P42574); assay type: functional;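 note: Dose-response selectivity test against caspase-3 for candidate inhibitors of sentrin-specific proteases (SENPs)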
T4 sequence (P42574 whole entry): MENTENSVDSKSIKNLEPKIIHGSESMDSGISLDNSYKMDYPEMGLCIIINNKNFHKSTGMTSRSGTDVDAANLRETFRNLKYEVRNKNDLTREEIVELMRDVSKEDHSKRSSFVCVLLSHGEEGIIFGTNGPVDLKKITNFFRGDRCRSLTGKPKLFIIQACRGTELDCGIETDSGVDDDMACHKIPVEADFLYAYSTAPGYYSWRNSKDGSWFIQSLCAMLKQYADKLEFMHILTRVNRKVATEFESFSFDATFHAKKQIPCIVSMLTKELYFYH

[11] = MC4R antagonists, dose response, counter-screen for LGR2 antagonist project, cell-based, plate reader, cherry pick (AID 743444); assay type: functional;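 note: transfected HEK 293 cells stimulated with alpha-MSH peptide; potency of inhibitors of the alpha-MSH evoked signal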
[12] = LGR2 antagonists, dose response, cell-based, HEK293, CRE-luciferase reporter, cherry pick, set 2 (AID 743343); assay type: functional;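 note: transfected cells were stimulated with diluted bursicon conditioned medium after compound addition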
[13] = molecular target: T5, Sentrin-specific protease 7 (Homo sapiens, UniProt Q9BQF6); assay type: functional;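 note: Luminescence-based dose-response confirmation of ultra-high-throughput screening hits, measuring inhibition of SENP7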
T5 sequence (Q9BQF6 whole entry): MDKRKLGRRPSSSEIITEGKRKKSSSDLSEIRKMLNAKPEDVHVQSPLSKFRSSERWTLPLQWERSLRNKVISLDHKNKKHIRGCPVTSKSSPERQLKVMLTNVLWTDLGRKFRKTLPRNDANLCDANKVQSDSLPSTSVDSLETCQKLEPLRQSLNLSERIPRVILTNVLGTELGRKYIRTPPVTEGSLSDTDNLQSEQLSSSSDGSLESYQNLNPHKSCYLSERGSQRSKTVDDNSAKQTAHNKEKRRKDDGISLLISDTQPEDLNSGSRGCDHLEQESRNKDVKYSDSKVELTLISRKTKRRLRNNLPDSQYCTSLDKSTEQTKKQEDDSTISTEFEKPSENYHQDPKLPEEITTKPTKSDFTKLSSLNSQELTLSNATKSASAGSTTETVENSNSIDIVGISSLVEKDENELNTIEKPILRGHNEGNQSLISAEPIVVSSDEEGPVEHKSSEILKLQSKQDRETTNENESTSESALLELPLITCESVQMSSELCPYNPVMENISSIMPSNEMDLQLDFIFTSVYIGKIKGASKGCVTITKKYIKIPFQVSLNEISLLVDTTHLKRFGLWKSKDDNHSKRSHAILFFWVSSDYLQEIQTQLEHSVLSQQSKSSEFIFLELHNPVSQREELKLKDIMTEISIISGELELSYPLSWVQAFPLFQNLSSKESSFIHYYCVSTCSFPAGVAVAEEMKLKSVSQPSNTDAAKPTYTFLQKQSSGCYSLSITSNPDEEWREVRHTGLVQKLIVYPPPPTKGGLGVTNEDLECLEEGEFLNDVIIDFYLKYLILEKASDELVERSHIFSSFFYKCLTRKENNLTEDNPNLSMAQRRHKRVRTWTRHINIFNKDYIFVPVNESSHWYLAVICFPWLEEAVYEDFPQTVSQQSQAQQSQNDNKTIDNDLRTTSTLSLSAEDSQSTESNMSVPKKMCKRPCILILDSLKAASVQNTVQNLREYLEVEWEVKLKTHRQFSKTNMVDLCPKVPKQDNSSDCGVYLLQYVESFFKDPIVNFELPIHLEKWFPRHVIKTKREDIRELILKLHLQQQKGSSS

[14] = molecular target: T6, Sentrin-specific protease 8 (Homo sapiens, UniProt Q96LD8); assay type: functional;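 note: luminescence read-out of SENP8 inhibition, dose-response confirmation following an ultra-high-throughput screen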
T6 sequence (Q96LD8 whole entry): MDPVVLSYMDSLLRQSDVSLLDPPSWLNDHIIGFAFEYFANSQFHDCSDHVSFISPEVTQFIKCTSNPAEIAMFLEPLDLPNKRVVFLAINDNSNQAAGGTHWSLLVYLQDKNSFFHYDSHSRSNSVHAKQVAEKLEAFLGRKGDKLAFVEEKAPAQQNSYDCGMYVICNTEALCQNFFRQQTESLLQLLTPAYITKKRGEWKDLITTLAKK

Sequence of Albumin (P02769 whole entry): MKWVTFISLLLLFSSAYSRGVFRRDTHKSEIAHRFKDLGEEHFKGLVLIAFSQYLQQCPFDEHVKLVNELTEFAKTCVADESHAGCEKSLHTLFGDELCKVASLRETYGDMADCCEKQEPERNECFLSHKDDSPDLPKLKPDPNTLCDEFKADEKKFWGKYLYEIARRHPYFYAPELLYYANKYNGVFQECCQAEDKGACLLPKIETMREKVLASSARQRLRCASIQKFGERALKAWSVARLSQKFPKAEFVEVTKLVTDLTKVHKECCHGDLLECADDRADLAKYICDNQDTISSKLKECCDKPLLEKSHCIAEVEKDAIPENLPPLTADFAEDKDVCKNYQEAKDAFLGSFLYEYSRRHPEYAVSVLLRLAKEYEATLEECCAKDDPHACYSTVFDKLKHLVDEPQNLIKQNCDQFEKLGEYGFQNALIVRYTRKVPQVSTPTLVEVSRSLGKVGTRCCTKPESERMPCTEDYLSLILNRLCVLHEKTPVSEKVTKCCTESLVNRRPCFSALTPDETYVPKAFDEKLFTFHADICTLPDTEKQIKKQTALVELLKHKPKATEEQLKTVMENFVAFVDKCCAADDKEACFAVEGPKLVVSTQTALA
Sequence of Cytochrome P450 3A4 (P08684 whole entry): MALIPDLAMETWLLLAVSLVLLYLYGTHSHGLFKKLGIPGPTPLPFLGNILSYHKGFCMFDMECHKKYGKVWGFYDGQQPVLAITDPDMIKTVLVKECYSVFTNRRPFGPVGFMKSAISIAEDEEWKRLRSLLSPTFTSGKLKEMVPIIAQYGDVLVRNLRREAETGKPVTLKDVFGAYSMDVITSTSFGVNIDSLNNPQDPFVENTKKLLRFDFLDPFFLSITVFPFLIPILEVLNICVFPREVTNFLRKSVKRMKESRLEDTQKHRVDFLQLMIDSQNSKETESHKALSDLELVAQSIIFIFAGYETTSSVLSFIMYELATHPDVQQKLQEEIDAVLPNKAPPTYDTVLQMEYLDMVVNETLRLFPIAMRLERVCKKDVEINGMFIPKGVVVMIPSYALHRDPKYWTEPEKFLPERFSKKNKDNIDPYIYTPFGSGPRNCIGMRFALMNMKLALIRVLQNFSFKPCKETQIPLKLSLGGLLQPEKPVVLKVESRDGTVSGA
Sequence of Cytochrome P450 2C9 (P11712 whole entry): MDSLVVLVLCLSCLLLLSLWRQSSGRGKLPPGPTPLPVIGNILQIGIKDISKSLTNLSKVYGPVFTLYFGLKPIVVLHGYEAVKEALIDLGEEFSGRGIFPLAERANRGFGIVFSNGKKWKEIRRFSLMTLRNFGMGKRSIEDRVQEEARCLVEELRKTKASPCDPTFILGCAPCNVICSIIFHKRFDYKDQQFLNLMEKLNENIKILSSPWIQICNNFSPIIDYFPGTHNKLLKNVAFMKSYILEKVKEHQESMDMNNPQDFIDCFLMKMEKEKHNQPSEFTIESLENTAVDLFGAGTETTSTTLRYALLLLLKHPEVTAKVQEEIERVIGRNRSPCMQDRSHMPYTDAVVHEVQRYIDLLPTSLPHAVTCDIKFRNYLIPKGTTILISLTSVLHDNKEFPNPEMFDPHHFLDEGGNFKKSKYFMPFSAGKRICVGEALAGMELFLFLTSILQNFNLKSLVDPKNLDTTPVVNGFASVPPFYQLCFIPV

## Cc1cc(C)n(CC(O)CN2c3ccccc3Sc3ccccc32)n1 (centres undefined)
[1]
  IC50: 82.6 µM (active)
[2]
  IC50: > 100 µM (active)
[3]
  CC50: 100 µM (active)

## CCOc1cccc(CNc2ccc(O)cc2)c1OCc1ccccc1Cl
[4]
  CC50: 23 µM (active)
Vero
  CC50: > 40 µM (active)

## Cc1ccc(NC(=O)CSc2nnc(C3CCCCC3)n2N)cc1F
[2]
  IC50: > 100 µM (active)

## CCN(CC)C(=O)CCNS(=O)(=O)c1ccc(C)cc1
Cytochrome P450 2C9
  AC50: inconclusive
[2]
  IC50: > 100 µM (active)
Cytochrome P450 1A2
  AC50: 28.2 µM (inconclusive)
Cytochrome P450 3A4
  AC50: 25.1 µM (inconclusive)

## O=C(NNC(=O)c1ccccc1O)c1ccc(-c2ccc([N+](=O)[O-])cc2)o1
[5]
  EC50: > 38 µM (not active)
Albumin
  IC50: > 94.1 µM (inactive)
[4]
  CC50: 15.3 µM (active)
[6]
  EC50: > 150 µM (inactive)

## O=C(OC(C(=O)NCc1cccs1)c1ccccc1Cl)c1ccco1 (centres undefined)
[4]
  CC50: > 40 µM (active)

## COC(=O)Cc1cc(O)n2nc(C)cc2n1
[2]
  IC50: > 100 µM (active)

## Cc1ccc(-c2csc(NC(=O)c3ccc(-c4ccccc4)cc3)n2)o1
[2]
  IC50: > 100 µM (active)

## COc1ccccc1C(=O)C1CCCN(Cc2ccc3c(c2)OCCO3)C1 (centres undefined)
[4]
  CC50: > 40 µM (active)

## O=C(O)CN1C(=O)CSc2ccccc21
[2]
  IC50: > 100 µM (active)

## C/C(O)=C1/C(=O)N(C)C(=S)N(c2ccccc2)C1=O
[2]
  IC50: > 100 µM (active)

## Cn1c(-c2ccccc2)cc2onc(-c3ccccc3)c2c1=O
[7]
  AC50: 34.4 µM (active)
[8]
  IC50: 1.51 µM (active)
[9]
  AC50: > 52 µM (inactive)
[10]
  AC50: 51.9 µM (active)
Caspase-3
  IC50: 2.4 µM (active)
[11]
  AC50: 3.66 µM (active)
[12]
  AC50: 3.08 µM (active)
[13]
  IC50: 1.14 µM (active)
[14]
  IC50: 3.11 µM (active)
